Source: the supplement of paper PMC6045584

Assays:
Test in all cases: area under dose-response curve of surviving fraction (unscaled, Aref=0) (surviving fraction x log10(nM)); higher = more resistant
Details in all cases: exposure time: 5 days; dose range 0.5-1000 nM
[1] = compound: CN(Cc1cnc2nc(N)nc(N)c2n1)c1ccc(C(=O)N[C@@H](CCC(=O)O)C(=O)O)cc1 [METHOTREXATE]
How it was run: (§1)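 Three screens per tumour cell line were run in 384-well plates at eight inhibitor concentrations from 0.5 to 1000 nM over five days. Surviving fractions, from CellTiter-Glo luminescence normalised to DMSO-only wells, were fitted with 3-parameter logistic curves in the drc R package. The reported area under the curve is the unscaled activity area. It spans log10 dose, and Aref is 0.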

[2] = compound: COc1cc(CCc2cc(NC(=O)c3ccc(N4CC(C)NC(C)C4)cc3)n[nH]2)cc(OC)c1 [AZD4547]
How it was run: as §1

[3] = compound: COc1cc([C@@H]2c3cc4c(cc3[C@@H](O[C@@H]3O[C@@H]5CO[C@@H](C)O[C@H]5[C@H](O)[C@H]3O)[C@H]3COC(=O)[C@H]23)OCO4)cc(OC)c1O [ETOPOSIDE]
How it was run: as §1

[4] = compound: Cc1nc(Nc2n[nH]c3c2CN(C(=O)N[C@H](CN(C)C)c2ccccc2)C3(C)C)c2sccc2n1
How it was run: as §1

[5] = compound: NC1(c2ccc(-c3nc4ccn5c(=O)[nH]nc5c4cc3-c3ccccc3)cc2)CCC1 [MK2206]
How it was run: as §1

[6] = compound: Nc1ccn([C@@H]2O[C@H](CO)[C@@H](O)C2(F)F)c(=O)n1 [GEMCITABINE]
How it was run: as §1

[7] = compound: O=C(NOCC1CC1)c1ccc(F)c(F)c1Nc1ccc(I)cc1Cl
How it was run: as §1

[8] = compound: CCN(CC)CCNC(=O)c1c(C)[nH]c(/C=C2\C(=O)Nc3ccc(F)cc32)c1C [SUNITINIB]
How it was run: as §1

[9] = compound: C#Cc1cccc(Nc2ncnc3cc(OCCOC)c(OCCOC)cc23)c1 [ERLOTINIB]
How it was run: as §1

[10] = compound: CCC1=C[C@@H]2CN(C1)Cc1c([nH]c3ccccc13)[C@@](C(=O)OC)(c1cc3c(cc1OC)N(C)[C@H]1[C@@](O)(C(=O)OC)[C@H](OC(C)=O)[C@]4(CC)C=CCN5CC[C@]31[C@@H]54)C2 [VINORELBINE]
How it was run: as §1

[11] = compound: CO[C@H]1C[C@@H]2CC[C@@H](C)[C@@](O)(O2)C(=O)C(=O)N2CCCC[C@H]2C(=O)O[C@H]([C@H](C)C[C@@H]2CC[C@@H](OCCO)[C@H](OC)C2)CC(=O)[C@H](C)/C=C(\C)[C@@H](O)[C@@H](OC)C(=O)[C@H](C)C[C@H](C)/C=C/C=C/C=C/1C [EVEROLIMUS]
How it was run: as §1

[12] = compound: O=C(O)CC[C@H]1CC[C@@](c2cc(F)ccc2F)(S(=O)(=O)c2ccc(Cl)cc2)CC1 [MK0752]
How it was run: as §1

[13] = compound: CCCS(=O)(=O)Nc1ccc(F)c(C(=O)c2c[nH]c3ncc(Cl)cc23)c1F [PLX-4720]
How it was run: as §1

| Test System | area under dose-response curve [1] | area under dose-response curve [2] | area under dose-response curve [3] | area under dose-response curve [4] | area under dose-response curve [5] | area under dose-response curve [6] | area under dose-response curve [7] | area under dose-response curve [8] | area under dose-response curve [9] | area under dose-response curve [10] | area under dose-response curve [11] | area under dose-response curve [12] | area under dose-response curve [13] |
| --- | --- | --- | --- | --- | --- | --- | --- | --- | --- | --- | --- | --- | --- |
| SYO1 SYNOVIAL | 1.91 | 2.4 | 2.14 | 0.731 | 2.79 | 0.79 | 2.4 | 1.69 | 3.34 | 1.3 | 1.81 | 3.26 | 2.17 |
| 22RV1 PROSTATE | 2.21 | 3.43 | 2.73 | 1.33 | 2.65 |  | 2.6 | 3.06 | 3.31 | 1.53 | 1.48 | 3.57 | 3.09 |
| JIMT1 BREAST | 1.69 | 3.41 | 3.23 | 2.28 | 3.01 | 1.44 | 3.11 | 2.96 | 3.16 | 1.24 | 1.88 | 3.29 | 3.05 |
| T47D BREAST | 2.28 | 3.76 | 2.95 | 2.87 | 2.61 | 2.72 | 3.24 | 3.18 | 3.73 | 1.99 | 2.24 | 3.56 | 3.2 |
| H23 LUNG | 1.75 | 3.37 | 3.08 | 1.47 | 3.04 | 1.22 | 2.08 | 2.86 | 2.52 | 1.74 | 1.76 | 3.65 | 3.19 |
| MDAMB231 BREAST | 3.12 | 3.37 | 3.08 | 1.79 | 3.09 | 2.29 | 3.01 | 3.4 | 3.4 | 1.77 | 2.01 | 3.28 | 3.25 |
| MCF7 BREAST | 2.23 | 3.09 | 2.83 | 2.09 | 2.79 | 1.94 | 2.83 | 2.56 | 3.32 | 2.07 | 1.74 | 3.07 | 2.81 |
| COLO320DM LARGE INTESTINE | 1.92 | 3.59 | 3.54 | 2.68 | 3.11 | 1.53 | 3.26 | 2.59 | 3.34 | 3.2 | 2.62 | 3.87 | 3.03 |
| HOSMNG BONE | 1.71 | 3.3 |  | 2.58 | 2.72 | 1.49 | 3.32 | 3.15 | 3.19 | 2.25 | 3.27 | 3.3 |  |
| CASKI CERVIX | 2.23 | 3.17 | 2.72 | 0.674 | 2.5 | 1.01 | 2.58 | 2.3 | 2.27 | 1.27 |  | 3.28 | 3 |
| HOS BONE | 1.32 | 3.24 | 2.45 | 1.45 | 3.15 | 0.975 | 3.27 | 3.1 | 3.4 | 1.78 | 2.56 | 3.51 | 3.19 |
| HS578T BREAST | 2.46 | 3.18 | 2.59 | 1.45 | 2.94 | 3.12 | 3.18 |  |  | 1.28 | 1.77 | 3.05 | 2.96 |
| HT1080 SOFT TISSUE | 1.8 |  | 2.29 | 1.07 | 3.42 | 1.22 | 3.16 | 3.16 | 3.44 | 1.38 | 2.11 | 3.29 | 3.25 |
| SUM44 BREAST | 3.95 | 3.48 | 3.47 | 3.07 |  |  | 3.4 |  | 4.26 | 1.61 | 2.5 | 3.38 | 3.17 |
| PCI30 HEADNECK |  | 3.56 | 3.08 | 1.83 | 2.94 | 1.8 | 2.75 | 3.77 | 2.96 | 1.21 | 1.71 | 3.5 | 3.34 |
| MFM223 BREAST | 4 | 1.63 | 3.2 | 1.83 | 2.57 | 1.99 | 3.55 | 2.38 | 4.35 | 1.45 | 2.56 | 3.93 | 2.87 |
| MDAMB361 BREAST | 2.76 | 3.18 | 3.08 | 2.83 | 2.39 | 2.69 | 3.27 | 2.37 | 2.9 | 2.09 | 2.12 | 2.88 | 2.92 |
| A549 LUNG | 2.14 | 3.33 |  | 1.86 | 3.54 | 1.76 | 3.13 | 3.13 | 3.49 | 2.2 | 2.81 | 3.48 | 3.13 |
| MDAMB436 BREAST | 2.65 | 3.36 | 2.79 | 2.55 | 3.01 | 1.85 | 2.96 | 2.56 | 3.36 | 1.99 | 2 | 3.02 | 2.86 |
| SG43 HEADNECK | 2.93 | 2.62 | 2.8 |  | 2.3 | 2.1 | 2.18 | 3.53 | 2.23 | 1.93 | 3.01 | 3.25 | 3.93 |
| RDES SOFT TISSUE | 1.28 |  | 2.91 | 2.66 |  | 1.4 | 4.3 | 2.98 | 4.03 | 1.91 | 3.46 | 3.76 | 2.9 |

| Test System | area under dose-response curve [1] | area under dose-response curve [2] | area under dose-response curve [3] | area under dose-response curve [4] | area under dose-response curve [5] | area under dose-response curve [6] | area under dose-response curve [7] | area under dose-response curve [8] | area under dose-response curve [9] | area under dose-response curve [10] | area under dose-response curve [11] | area under dose-response curve [12] | area under dose-response curve [13] |
| --- | --- | --- | --- | --- | --- | --- | --- | --- | --- | --- | --- | --- | --- |
| SKBR3 BREAST | 2.7 | 3.75 | 3.1 | 1.62 | 2.48 | 1.76 |  | 2.46 | 3.55 | 1.38 | 1.31 | 3.29 | 3.02 |
| OS25HAL BONE | 1.93 | 3.36 | 3.02 | 1.54 | 2.56 | 0.944 | 3.16 | 3.07 | 3.48 | 1.8 | 2.13 | 3.42 | 3.14 |
| S68 BREAST | 3.64 | 3.45 | 2.65 | 1.4 | 2.5 | 1.22 | 2.84 | 2.58 |  | 1.53 | 1.39 | 3.26 | 2.92 |
| CHLA90 AUTONOMIC GANGLIA | 3.53 | 2.77 | 2.94 | 1.57 | 3.16 | 1.39 | 2.38 | 2.21 | 3.07 | 1.69 | 1.36 | 3.36 | 2.66 |
| KPD BONE | 3.55 | 3.14 | 2.77 | 1.06 | 2.3 |  | 3.25 | 3.08 | 3.57 | 2.29 | 1.44 | 3.43 | 3.19 |
| NY BONE | 2.49 | 2.25 | 3.17 | 1.56 | 3.18 | 1.11 | 3.13 | 2.99 | 3.37 | 1.35 | 2.33 | 3.54 | 3.09 |
| SUM149.B1*.S BREAST |  | 3.88 |  | 1.97 | 3.63 | 1.44 | 2.74 | 2.35 | 3.76 | 2.37 | 3.22 | 3.78 |  |
| MDAMB134 BREAST | 3.13 | 3.23 | 3.5 | 3.15 | 2.78 |  | 2.87 | 2.75 | 3.65 | 2.38 | 2.21 | 3.51 | 2.51 |
| SG32 HEADNECK | 3.65 | 3.26 |  | 1.04 | 3.68 | 1.77 | 2.65 | 1.96 | 3.57 | 1.95 |  | 3.82 | 2 |
| 143B BONE |  | 2.83 | 3.04 | 1.67 |  |  | 3.23 | 3.19 |  | 1.92 |  | 3.49 |  |
| LM7 BONE | 3 | 3.11 | 3.06 | 1.39 | 2.88 | 1.12 |  | 2.46 | 3.61 | 1.45 | 2.56 | 3.27 | 2.76 |
| CAL120 BREAST | 1.67 | 2.59 | 2.9 | 1.08 | 3.14 |  | 2.97 | 2.74 | 3.02 | 1.59 | 1.62 | 3.37 | 2.96 |
| HELA CERVIX | 2.22 | 3.71 | 3.04 | 2.12 | 3.72 | 1.75 |  | 3.08 | 3.61 | 1.64 | 3.58 | 3.42 | 3.26 |
| YAMATO SYNOVIAL | 2.44 |  |  | 2.79 | 2.75 | 1.25 | 3.26 | 1.58 | 4.34 | 2.04 | 2.2 | 4.77 | 2.65 |
| SJSA1 BONE | 5.58 | 3.5 | 3.13 | 1.92 | 3.03 | 5.62 | 3.08 | 3.16 |  | 2.09 | 5.2 | 3.53 | 3.17 |
| HCC1395 BREAST | 3.78 | 2.6 | 3.25 | 3.37 | 3.23 |  | 3.01 | 3.19 | 3.97 | 2.74 | 3.36 | 3.51 | 2.7 |
| VCAP PROSTATE | 3.36 |  |  | 1.29 | 2.65 | 1.1 | 3.17 | 3.14 | 3.63 | 1.32 | 3.02 | 3.78 | 3.22 |
| HCC38 BREAST |  | 2.93 |  | 1.16 | 4.11 | 1.01 | 3.59 |  | 4.24 | 2.07 | 2.92 | 4.01 | 3.09 |
| MDAMB453 BREAST | 2.93 | 2.88 | 3.71 | 1.76 | 2.65 | 1.47 | 3.37 | 3.27 |  | 1.31 | 1.43 | 3.54 | 3.35 |
| 93VU HEADNECK |  | 3.56 | 3.41 | 1.18 |  | 2 | 2.54 | 2.8 | 2.99 | 2.19 | 2.71 | 3.92 | 3.02 |
